Results: DBAASP
≈ marks a conversion by molar mass, not a printed value. Where “and” joins values, the source holds several entries; their conditions need not be identical. Identical values can stand only once. Each block holds one compound with its values, some of them ahead of it.

Columns and labels:
Assay in all cases: ≥ marks a high value that may be exact or a test limit, other limits are often not marked, values filed in µg/mL are converted to µM
[1] = test system: Bacillus subtilis CMCC 63501
[2] = test system: Escherichia coli UB1005
[3] = test system: Pseudomonas aeruginosa ATCC 27853
[4] = test system: Salmonella enterica subsp. enterica serovar Pullorum C79-13
[5] = test system: Salmonella typhimurium ATCC 7731
[6] = test system: Staphylococcus aureus ATCC 29213
[7] = test system: Staphylococcus aureus ATCC 43300
[8] = test system: Staphylococcus epidermidis ATCC 12228
[9] = test system: Escherichia coli C25
[10] = test system: Staphylococcus aureus ATCC 25923
[11] = test system: Escherichia coli ATCC 25922
[12] = test system: Listeria monocytogenes KCTC 19111
[13] = test system: Pseudomonas aeruginosa ATCC 15692
[14] = test system: Salmonella typhimurium KCTC 1926
[15] = test system: Staphylococcus epidermidis KCTC 1917
[16] = test system: Escherichia coli BW25113
[17] = test system: Escherichia coli J2210
[18] = test system: Escherichia coli JJ2489
[19] = test system: Escherichia coli JW0013
[20] = test system: Escherichia coli JW0368 ΔsbmA
[21] = test system: Escherichia coli JW2778 ΔygdD
[22] = test system: Escherichia coli MC1041
[23] = test system: Escherichia coli
[24] = test system: Salmonella enterica serovar Tennessee
[25] = test system: Salmonella enterica subsp. enterica serovar Enteritidis MH91989
[26] = test system: Salmonella enterica subsp. enterica serovar Infantis
[27] = test system: Salmonella enterica subsp. enterica serovar Newport
[28] = test system: Salmonella typhimurium SL1344
[29] = test system: Escherichia coli DH5alpha
[30] = test system: Porphyromonas gingivalis W50
[31] = test system: Pseudomonas aeruginosa PAO1
[32] = test system: Escherichia coli K12 MG1655
[33] = test system: Bacillus megaterium Bm11
[34] = test system: Candida albicans ATCC 90028
[35] = test system: Enterobacter cloacae ATCC 49141
[36] = test system: Enterococcus faecalis ATCC 19433
[37] = test system: Klebsiella aerogenes ATCC 35029
[38] = test system: Pseudomonas aeruginosa ATCC 9027
[39] = test system: Pseudomonas aeruginosa Ps4
[40] = test system: Staphylococcus aureus ATCC 6538P
[41] = test system: Staphylococcus aureus USA 100
[42] = test system: Staphylococcus aureus USA 300
[43] = test system: Streptococcus pyogenes ATCC 49399

MIC [1]: 8 µM (≈ 25.5 µg/mL)
MIC [2]: 2 µM (≈ 6.37 µg/mL)
MIC [3]: 2 µM (≈ 6.37 µg/mL)
MIC [4]: 2 µM (≈ 6.37 µg/mL)
MIC [5]: 8 µM (≈ 25.5 µg/mL)
MIC [6]: 32 µM (≈ 102 µg/mL)
MIC [7]: 32 µM (≈ 102 µg/mL)
MIC [8]: 32 µM (≈ 102 µg/mL)
SMILES: CC(C)C[C@H](NC(=O)[C@H](CCCCN)NC(=O)[C@H](CCCCN)NC(=O)[C@H](C)NC(=O)[C@@H](NC(=O)[C@H](CCCCN)NC(=O)[C@H](CO)NC(=O)[C@H](CC(C)C)NC(=O)[C@H](Cc1c[nH]c2ccccc12)NC(=O)[C@H](CC(C)C)NC(=O)[C@H](CCCCN)NC(=O)[C@H](CCCCN)NC(=O)[C@H](C)NC(=O)[C@@H](NC(=O)[C@H](CCCCN)NC(=O)[C@H](CO)NC(=O)[C@H](CC(C)C)NC(=O)[C@H](Cc1c[nH]c2ccccc12)NC(=O)[C@H](CC(C)C)NC(=O)[C@H](CCCCN)NC(=O)[C@H](CCCCN)NC(=O)[C@H](C)NC(=O)[C@@H](NC(=O)[C@H](CCCCN)NC(=O)[C@H](CO)NC(=O)[C@H](CC(C)C)NC(=O)[C@@H](N)Cc1c[nH]c2ccccc12)[C@@H](C)O)[C@@H](C)O)[C@@H](C)O)C(N)=O [WLSKTAKKLWLSKTAKKLWLSKTAKKL]

MIC [29]: ≥ 143 µM
MIC [30]: ≥ 119 µM
MIC [31]: > 119 µM
SMILES: CC[C@H](C)[C@H](NC(=O)[C@H](CCC(N)=O)NC(=O)CN)C(=O)N[C@H](C(=O)N[C@@H](CC(N)=O)C(=O)N[C@@H](CC(C)C)C(=O)N[C@@H](CCCCN)C(=O)N[C@@H](C)C(=O)N[C@@H](CO)C(=O)N[C@@H](CC(C)C)C(=O)N[C@@H](CC(=O)O)C(=O)N[C@@H](CC(C)C)C(=O)N[C@@H](CC(C)C)C(N)=O)[C@@H](C)CC [GQIINLKASLDLL]

Second part, the compound before the results:

SMILES: CC[C@H](C)[C@H](NC(=O)CNC(=O)[C@H](CCCN=C(N)N)NC(=O)[C@H](Cc1ccc(O)cc1)NC(=O)[C@@H](NC(=O)[C@H](CCCN=C(N)N)NC(=O)[C@H](Cc1ccccc1)NC(=O)[C@H](Cc1c[nH]c2ccccc12)NC(=O)[C@@H](N)CCCCN)C(C)C)C(=O)N[C@@H](Cc1ccc(O)cc1)C(N)=O [KWFRVYRGIY]
MIC [9]: ≥ 720 µM
MIC [10]: 180 µM (≈ 250 µg/mL)

SMILES: NCCCC[C@H](NC(=O)CNC(=O)[C@H](Cc1c[nH]c2ccccc12)NC(=O)[C@H](CCCCN)NC(=O)[C@H](CCCCN)NC(=O)CNC(=O)[C@H](Cc1c[nH]c2ccccc12)NC(=O)[C@H](CCCCN)NC(=O)[C@H](CCCCN)NC(=O)CNC(=O)[C@H](Cc1c[nH]c2ccccc12)NC(=O)[C@@H](N)CCCCN)C(N)=O [KWGKKWGKKWGK]
MIC [11]: 4 µM (≈ 6.06 µg/mL)
MIC [12]: 8 µM (≈ 12.1 µg/mL)
MIC [13]: 4 µM (≈ 6.06 µg/mL)
MIC [14]: 16 µM (≈ 24.3 µg/mL)
MIC [10]: 64 µM (≈ 97 µg/mL)
MIC [15]: 8 µM (≈ 12.1 µg/mL)

SMILES: CC(C)C[C@H](NC(=O)[C@H](CCCN=C(N)N)NC(=O)[C@@H]1CCCN1C(=O)[C@H](Cc1cnc[nH]1)NC(=O)[C@@H]1CCCN1C(=O)[C@@H]1CCCN1C(=O)[C@H](CCCN=C(N)N)NC(=O)[C@@H]1CCCN1C(=O)[C@H](CCC(N)=O)NC(=O)[C@@H]1CCCN1C(=O)[C@H](CCCCN)NC(=O)[C@H](Cc1ccc(O)cc1)NC(=O)[C@@H](NC(=O)[C@@H]1CCCN1C(=O)[C@H](CCCCN)NC(=O)[C@H](CC(N)=O)NC(=O)[C@H](CC(N)=O)NC(=O)CN)C(C)C)C(=O)O [GNNKPVYKPQPRPPHPRL]
MIC [16]: 0.017 µM (≈ 0.0356 µg/mL)
MIC [17]: 0.034 µM (≈ 0.0712 µg/mL)
MIC [18]: 0.031 µM (≈ 0.065 µg/mL)
MIC [19]: 0.012 µM (≈ 0.0251 µg/mL)
MIC [20]: 0.096 µM (≈ 0.201 µg/mL)
MIC [21]: 0.024 µM (≈ 0.0503 µg/mL)
MIC [22]: 0.024 µM (≈ 0.0503 µg/mL)
MIC [23]: 0.048 µM (≈ 0.101 µg/mL)
MIC [24]: 0.024 µM (≈ 0.0503 µg/mL)
MIC [25]: 0.031 µM (≈ 0.065 µg/mL)
MIC [26]: 0.024 µM (≈ 0.0503 µg/mL)
MIC [27]: 0.024 µM (≈ 0.0503 µg/mL)
MIC [28]: 0.034 µM (≈ 0.0712 µg/mL)

SMILES: CC[C@H](C)[C@H](NC(=O)[C@H](CCCCN)NC(=O)[C@H](CCCCN)NC(=O)[C@@H](NC(=O)[C@@H](NC(=O)[C@H](CCCN=C(N)N)NC(=O)[C@H](CCCCN)NC(=O)[C@H](CCC(=O)O)NC(=O)CNC(=O)[C@H](C)N)[C@@H](C)CC)[C@@H](C)CC)C(=O)N[C@@H](CC(=O)O)C(=O)N[C@@H](CCC(=O)O)C(=O)N[C@@H](C)C(=O)N[C@@H](Cc1ccccc1)C(=O)N[C@@H](CCC(N)=O)C(=O)O [AGEKRIIKKIDEAFQ]
MIC [32]: ≥ 73.3 µM

SMILES: CC[C@H](C)[C@H](NC(=O)[C@H](CCCN=C(N)N)NC(=O)[C@@H](NC(=O)[C@H](CCCN=C(N)N)NC(=O)[C@H](Cc1c[nH]c2ccccc12)NC(=O)[C@H](Cc1ccccc1)NC(=O)[C@@H]1CCCN1)[C@@H](C)CC)C(=O)N[C@@H](CCCN=C(N)N)C(=O)N[C@@H](CCCN=C(N)N)C(N)=O [PFWRIRIRR]
MIC [33]: 1.25 µM (≈ 1.62 µg/mL)
MIC [34]: ≥ 100 µM
MIC [35]: ≥ 40 µM
MIC [36]: ≥ 40 µM
MIC [11]: 8.71 µM and 10 µM
MIC [37]: ≥ 40 µM
MIC [3]: 40 µM (≈ 51.9 µg/mL)
MIC [38]: 100 µM (≈ 130 µg/mL)
MIC [31]: 24.6 µM (≈ 32 µg/mL)
MIC [39]: ≥ 48.1 µM
MIC [40]: ≥ 40 µM
MIC [41]: 12.5 µM (≈ 16.2 µg/mL)
MIC [42]: 12.5 µM (≈ 16.2 µg/mL)
MIC [43]: 2.5 µM (≈ 3.25 µg/mL)
